Source: US20110117017A1, “PEPTIDES WITH PROPERTIES OF AN […] FOR THE ALPHA 1A […] RECEPTOR AND USES THEREOF” (priority 2006, published 2011)

Experiments:
[1] = biological target: T1, alpha1a receptor (Homo sapiens, UniProt P35348); experiment: displacement of 3H-prazosin binding to the alpha1a receptor (yeast membranes)
T1 construct: made in house; host or cells: Pichia pastoris (membranes)
T1 sequence (P35348 1-466): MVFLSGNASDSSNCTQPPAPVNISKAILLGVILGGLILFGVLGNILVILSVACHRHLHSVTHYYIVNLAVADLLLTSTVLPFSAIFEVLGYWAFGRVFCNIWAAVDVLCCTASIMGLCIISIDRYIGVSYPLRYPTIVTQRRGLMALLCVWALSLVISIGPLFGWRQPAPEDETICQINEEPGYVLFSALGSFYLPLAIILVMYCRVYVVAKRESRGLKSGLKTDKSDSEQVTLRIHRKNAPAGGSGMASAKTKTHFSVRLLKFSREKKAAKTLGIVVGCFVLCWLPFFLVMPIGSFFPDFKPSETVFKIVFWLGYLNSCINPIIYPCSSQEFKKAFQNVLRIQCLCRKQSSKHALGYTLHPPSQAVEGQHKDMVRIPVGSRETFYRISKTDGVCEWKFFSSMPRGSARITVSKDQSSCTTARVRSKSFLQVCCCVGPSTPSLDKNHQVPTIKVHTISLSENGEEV

[2] = biological target: T2, alpha1b receptor (Homo sapiens, UniProt P35368); experiment: displacement of 3H-prazosin binding to the alpha1b receptor (yeast membranes)
T2 construct: made in house; host or cells: Pichia pastoris (membranes)
T2 sequence (P35368 1-520): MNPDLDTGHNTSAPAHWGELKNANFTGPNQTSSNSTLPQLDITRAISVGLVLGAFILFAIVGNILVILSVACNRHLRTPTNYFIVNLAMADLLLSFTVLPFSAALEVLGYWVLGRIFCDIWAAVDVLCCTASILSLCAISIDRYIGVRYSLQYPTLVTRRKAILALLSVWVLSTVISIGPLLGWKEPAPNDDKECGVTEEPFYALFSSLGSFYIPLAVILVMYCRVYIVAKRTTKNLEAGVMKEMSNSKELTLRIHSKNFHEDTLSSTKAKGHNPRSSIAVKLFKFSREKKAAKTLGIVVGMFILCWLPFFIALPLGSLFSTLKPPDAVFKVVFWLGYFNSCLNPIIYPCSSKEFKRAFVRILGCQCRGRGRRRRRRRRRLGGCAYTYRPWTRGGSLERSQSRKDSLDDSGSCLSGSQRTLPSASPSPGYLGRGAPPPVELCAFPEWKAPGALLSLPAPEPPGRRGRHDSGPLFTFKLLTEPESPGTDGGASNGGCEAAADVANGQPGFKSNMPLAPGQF

[3] = biological target: T3, alpha1d receptor (Homo sapiens, UniProt P25100); experiment: displacement of 3H-prazosin binding to the alpha1d receptor (yeast membranes)
T3 construct: made in house; host or cells: Pichia pastoris (membranes)
T3 sequence (P25100 1-572): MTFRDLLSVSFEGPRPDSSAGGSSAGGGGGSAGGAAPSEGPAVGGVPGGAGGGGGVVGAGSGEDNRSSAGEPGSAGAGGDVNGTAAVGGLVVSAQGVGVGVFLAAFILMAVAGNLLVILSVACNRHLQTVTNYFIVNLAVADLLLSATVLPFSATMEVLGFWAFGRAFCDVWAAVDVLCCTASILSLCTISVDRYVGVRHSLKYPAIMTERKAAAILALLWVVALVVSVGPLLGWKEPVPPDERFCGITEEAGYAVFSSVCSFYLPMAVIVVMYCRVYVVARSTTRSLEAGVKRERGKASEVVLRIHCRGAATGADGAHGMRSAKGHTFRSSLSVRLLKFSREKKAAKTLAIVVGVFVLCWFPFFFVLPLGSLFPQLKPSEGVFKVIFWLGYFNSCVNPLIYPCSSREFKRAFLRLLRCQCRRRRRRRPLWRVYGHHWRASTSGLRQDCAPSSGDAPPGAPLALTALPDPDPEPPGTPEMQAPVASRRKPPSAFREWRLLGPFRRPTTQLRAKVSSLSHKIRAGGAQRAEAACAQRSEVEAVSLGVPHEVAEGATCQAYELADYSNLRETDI

[4] = biological target: T4, α2a adrenergic receptor (Homo sapiens, UniProt P08913); experiment: displacement of 3H-rauwolscine binding to the alpha2a subtype (yeast membranes)
T4 construct: made in house; host or cells: Pichia pastoris (membranes)
T4 sequence (P08913 1-465): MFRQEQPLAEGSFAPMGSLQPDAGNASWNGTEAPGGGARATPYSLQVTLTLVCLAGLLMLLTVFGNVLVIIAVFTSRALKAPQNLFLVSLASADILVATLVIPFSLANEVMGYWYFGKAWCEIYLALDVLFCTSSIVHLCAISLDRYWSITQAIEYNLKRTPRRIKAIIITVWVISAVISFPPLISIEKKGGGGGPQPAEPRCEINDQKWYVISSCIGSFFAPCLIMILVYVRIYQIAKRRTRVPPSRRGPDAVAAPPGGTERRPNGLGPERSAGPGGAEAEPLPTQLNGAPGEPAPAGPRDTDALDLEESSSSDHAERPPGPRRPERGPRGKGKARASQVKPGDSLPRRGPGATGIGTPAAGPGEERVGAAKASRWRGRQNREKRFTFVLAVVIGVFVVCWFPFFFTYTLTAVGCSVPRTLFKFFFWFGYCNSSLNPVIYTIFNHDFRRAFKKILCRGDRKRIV

[5] = biological target: T5, beta1 receptor (Homo sapiens, UniProt P08588); experiment: displacement of 3H-CGP12177 binding to the beta1 receptor (yeast membranes)
T5 construct: made in house; host or cells: Pichia pastoris (membranes)

[6] = biological target: T6, alpha1a adrenergic receptor (Homo sapiens, UniProt P35348)
T6 sequence (P35348 1-466): T1 sequence (P35348 1-466)

[7] = biological target: T6, alpha1a adrenergic receptor; experiment: hot saturation of 125I-AdTx1 on yeast membranes expressing the alpha1a adrenergic receptor
Description: The analysis of the saturation of the alpha1a adrenergic receptor with AdTx1 is carried out by incubating increasing concentrations of the iodinated peptide in the presence of 20 μg of membranes containing the alpha1a adrenergic receptor, for 20 h, and then measuring the radioactivity as above.

T5 sequence (P08588 whole entry): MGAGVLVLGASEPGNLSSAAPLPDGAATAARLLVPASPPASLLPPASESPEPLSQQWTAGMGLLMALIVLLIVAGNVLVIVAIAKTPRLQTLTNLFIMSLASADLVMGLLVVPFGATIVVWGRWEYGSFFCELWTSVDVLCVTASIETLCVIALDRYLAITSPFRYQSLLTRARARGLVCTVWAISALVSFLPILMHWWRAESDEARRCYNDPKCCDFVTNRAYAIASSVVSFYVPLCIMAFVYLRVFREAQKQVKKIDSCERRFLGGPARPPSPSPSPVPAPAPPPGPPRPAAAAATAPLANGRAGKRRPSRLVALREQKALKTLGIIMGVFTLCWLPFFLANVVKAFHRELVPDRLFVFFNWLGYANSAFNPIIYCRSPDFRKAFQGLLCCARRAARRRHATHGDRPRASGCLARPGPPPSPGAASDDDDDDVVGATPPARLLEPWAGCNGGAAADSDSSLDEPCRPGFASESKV

## CC[C@H](C)[C@@H]1NC(=O)CNC(=O)[C@H](Cc2ccccc2)NC(=O)[C@H]([C@@H](C)CC)NC(=O)[C@H](CO)NC(=O)[C@H](CCCCN)NC(=O)[C@H](CO)NC(=O)[C@H]([C@@H](C)O)NC(=O)[C@H](C(C)C)NC(=O)[C@@H](NC(=O)[C@@H](NC(=O)[C@@H](N)CC(C)C)[C@@H](C)O)CSSC[C@@H]2NC(=O)[C@H](CC(C)C)NC(=O)[C@H](CC(N)=O)NC(=O)[C@H](CCC(N)=O)NC(=O)CNC(=O)[C@H](CC(=O)O)NC(=O)[C@@H]3CCCN3C(=O)[C@H](CSSC[C@@H](C(=O)N[C@@H](C)C(=O)N[C@@H](C)C(=O)N[C@H](C(=O)N[C@H]3CSSC[C@@H](C(=O)N[C@H]4CSSC[C@@H](C(=O)N[C@@H](CC(N)=O)C(=O)N[C@@H](CCC(=O)O)C(=O)O)NC(=O)[C@H](CCCCN)NC(=O)[C@H](CC(=O)O)NC(=O)[C@H]([C@@H](C)O)NC(=O)[C@H](CCCCN)NC4=O)NC(=O)[C@H](Cc4c[nH]cn4)NC(=O)[C@H]([C@@H](C)CC)NC(=O)[C@H](CO)NC(=O)[C@H](CC(=O)O)NC(=O)[C@H](Cc4ccc(O)cc4)NC(=O)[C@H](CC(N)=O)NC(=O)[C@H](CCC(=O)O)NC(=O)[C@@H]4CCCN4C(=O)[C@H]([C@@H](C)CC)NC(=O)[C@@H]4CCCN4C3=O)[C@@H](C)O)NC(=O)CNC(=O)[C@H](CCCNC(=N)N)NC(=O)[C@H]([C@@H](C)O)NC(=O)[C@H](CO)NC(=O)[C@H](CC(=O)O)NC(=O)[C@H](Cc3ccc(O)cc3)NC(=O)[C@H]([C@@H](C)CC)NC(=O)[C@H](CCCCN)NC(=O)[C@@H]3CCCN3C(=O)[C@H](C(C)C)NC(=O)[C@H](C(C)C)NC(=O)[C@H](Cc3ccc(O)cc3)NC(=O)[C@H](Cc3c[nH]cn3)NC(=O)[C@H](CCCNC(=N)N)NC(=O)[C@H](CCCNC(=N)N)NC(=O)[C@H](CCCCN)NC(=O)[C@H](Cc3ccccc3)NC2=O)NC(=O)[C@H](CC(=O)O)NC(=O)[C@H](CCC(=O)O)NC(=O)[C@H]([C@@H](C)O)NC(=O)[C@H]([C@@H](C)O)NC1=O [AdTx1]
[1]
  IC50: 1.8 nM
[2]
  IC50: 2300 nM
[3]
  IC50: 9900 nM
[4]
  IC50: > 50000 nM
[5]
  IC50: > 50000 nM
[6]
  IC50: 0.5 nM
[7]
  Kd: 0.8 ± 0.2 nM
